A word on the AC50: it is the concentration giving half of the maximal activity seen.

The source made the active and inactive calls. How the calls were made is not given here.

Data on 40 molecules can be found in PubChem BioAssay AID540271 (Broad Institute, 2011).

In this assay the test system is S. cerevisiae expressing PfHSP40, growth rescue, plate reader. Put plainly: Yeast growth rescue from Plasmodium falciparum HSP40 toxicity, dose response confirmatory, plate reader (AID 540271).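 Further: yeast growth read after three days of incubation at 30 °C.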
Consider `CC(=O)c1c(C)oc2c1C(=O)c1ccccc1C2=O`, for which the half-maximal activity concentration (AC50) is 5.09 µM.
On to `O/N=C(\c1ccc(Cl)cc1)c1cc2ccccc2o1`, for which the AC50 was 5.38 µM.
For `Cc1cccc(NS(=O)(=O)c2ccc(-c3cnc(C4CC4)o3)cc2)c1C` the value was 5.32 µM; for `COc1cc2cnc(-c3ccccc3)c(C(=O)c3ccc(F)cc3)c2cc1OC`, 4.57 µM; for `Oc1ccc(/C=N/Nc2ccc(C(F)(F)F)cn2)c(O)c1`, 2.14 µM.
With `O=C1C(=C(I)I)c2ccccc2-c2ccccc21`, the AC50 was 5.61 µM.
For `C[C@H](O)[C@H]1CC[C@H]2[C@@H]3CCC4=CC(=O)CC[C@]4(C)[C@H]3CC[C@]12C` the value was 6.85 µM; for `Clc1ccc(OCc2nc(-c3ccncc3)no2)c(Br)c1`, 6.2 µM; for `Clc1ccc(CSC(Cn2ccnc2)c2ccc(Cl)cc2Cl)cc1` (stereo not given), 0.25 µM.
`CCCCCCn1c(=O)c(C(=O)Nc2ncccc2C)c(O)c2ccccc21`: the AC50 is 3.03 µM.
As for `COc1cc(/C=N/O)cc(Br)c1OCc1cccc(Cl)c1`, the AC50 is 5.31 µM.
As for `[O-][n+]1cccc2c(Br)cc(Br)c(O)c21`, the AC50 was 2.69 µM.
For `Cc1noc2ncnc(SCc3ccc(C(F)(F)F)cc3)c12` the value was 7.67 µM; for `Cc1cccc2sc(NNC(=O)c3ccc(S(=O)(=O)N4CC(C)CC(C)C4)cc3)nc12` (stereo not given), 1.65 µM.
Next, `C=CCNc1nc(-c2ccccn2)nnc1-c1ccccc1`: 10.3 µM; `O=C(CSc1ccc(-c2ccccn2)nn1)N1CCCc2ccccc21`: 3.52 µM.
For `COc1cccc(/C=N/Nc2ncnc3scc(-c4ccccc4)c23)c1O` the value was 1.7 µM; for `O=c1c(CO)cc(CO)cc(CO)c1O`, 6.03 µM; for `CCCCNc1c(-c2ccc(-c3ccc(OC)cc3)c(OC)c2)nc2ccccn12`, 5.48 µM.
Regarding `CCC(=O)NC(c1ccco1)c1cc(Cl)c2cccnc2c1O` (stereo not given), the AC50 is 2.99 µM.
For `O=C(/C(=N/N=C/c1ccc(O)c(O)c1O)c1ccccc1)c1ccccc1` the value was 6.09 µM; for `COc1ccc(-c2cc(C(=O)NNC(=S)NC(=O)c3c(-c4ccccc4)noc3C)[nH]n2)cc1`, 2.69 µM; for `CCOC(=O)c1ccc(NC(=O)CC2C(=O)OCCN2CC)cc1` (stereo not given), 4.66 µM.
For `O=Nc1c(O)n(Cc2ccc(Cl)c(Cl)c2)c2ccccc12` the value was 6.59 µM; for `c1ccc(-c2ccc(OCCCn3cncn3)cc2)cc1`, 5.48 µM; for `CCCC(C)Sc1nc2c([nH]1)c(=S)n(C)c(=O)n2C` (stereo not given), 8.18 µM.
Consider `S=C(NCCCc1ccccc1)Nc1ccccc1Cl`, for which the AC50 is 9.44 µM.
For `O=C(c1ccc(-c2ccccc2)c(F)c1)C1CCCN(C(=O)c2cncs2)C1` (stereo not given) the value was 5.68 µM; for `Cc1ccc(C2(c3ccc(C)cc3)CC2C(=O)Nc2ccc([N+](=O)[O-])cc2O)cc1` (stereo not given), 5.44 µM.
As to `N#C/C(=C\Nc1ccccc1O)c1nc2ccccc2o1`, the AC50 is 9.96 µM.
For `COc1cccc(/C=N/Nc2ncnc(Cl)c2N)c1O` the value was 4.52 µM.
For `COc1cc([N+](=O)[O-])cc(/C=N/NC(=O)c2cncc(Br)c2)c1O` the value was 4.36 µM.
Next, `COc1ccc2c(c1)[C@H]1[C@H](CO2)[C@H](c2ccccc2)[C@]2(C)C(=O)Nc3ccc(Cl)cc3C(=O)N12`: > 12 µM (inactive).
Regarding `O=CC1=C(c2ccccc2)Oc2ccccc2O1`, the concentration at half-maximal activity (AC50) was 2.78 µM.
Next, `CCc1oc2ccccc2c1C(=O)c1cc(Br)c(O)c(Br)c1`: 3.28 µM; `CCCC(=O)NC(c1ccccc1OC)c1ccc2cccnc2c1O` (stereo not given): 1.7 µM.
Next, `CC1CCN(c2ccc3c(c2)S(=O)(=O)c2ccccc2C3=O)CC1`: 9.89 µM; `CCCCCCCCCCOC(=O)Cn1c(COc2ccccc2)[n+](C)c2ccccc21`: > 12 µM (inactive); `Cn1nc(C(F)(F)F)c(C#N)c1N1CCN(c2ccc(F)cc2)CC1`: 7.37 µM.
For `CC1CCc2sc(-c3n[nH]c(=S)o3)cc2C1` (stereo not given) the value was 5.69 µM.
